This passage reports EC50, IC50 and outcome results from PubChem BioAssay AID179 (DTP/NCI, 2004).

This test has as its system CEM cells HIV-1 protection, formazan growth assay. Kind of test: NCI AIDS Antiviral Assay. The following applies: for IC50: measured here: growth of uninfected CEM cells. The procedure, abridged:
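Steps: treat uninfected and HIV-1-infected human CEM cells at five drug levels; quantify growth by soluble formazan; retest any compound reaching 50% protection; classify actives from the retest.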

The source made the active and inactive calls.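 The calls were made as follows: active = compounds giving half or more protection of infected cells from virus-caused growth loss, again on retest; inactive = the rest.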 Where a SMILES comes first, the peptide text is derived from it. [ ]: non-standard residue; d: D form. The star is where a group is joined. ξ: configuration not given here. X4 = CC(C)(C)c1cc(OCC(=O)*)ccc1Sc1c(O)cc(-c2ccccc2)oc1=O; NMeLeu(3R-OH) = CN[C@H](C(=O)O)[C@H](O)C(C)C; NMeF = CN[C@@H](Cc1ccccc1)C(=O)O; NMeL = CN[C@@H](CC(C)C)C(=O)O; NMeV = CN[C@H](C(=O)O)C(C)C; ξNMeN = CNC(CC(N)=O)C(=O)O; dNMeS = CN[C@H](CO)C(=O)O; NMeA = CN[C@@H](C)C(=O)O; ξNMeV = CNC(C(=O)O)C(C)C; Abu = CC[C@H](N)C(=O)O; Boc = CC(C)(C)OC(=O)*

Usually EC50 stands for the midpoint of the concentration-response curve. What is called IC50 is the midpoint of a concentration-inhibition curve. A high value points to weaker potency. In the case of `O=C1CCN2C(=O)CCN12`, the EC50 is greater than 1780 µM and the IC50 was greater than 1780 µM. Regarding `S=c1[nH]ccs1`, the EC50 is greater than 200 µM and the IC50 was greater than 200 µM. For the compound `O=[N+]([O-])c1ccc2c(c1)c(OCc1ccccc1)nn2Cc1ccccc1`, the EC50 was greater than 200 µM and the IC50 is 95.5 µM.

Take `N#Cc1c2c(c(Nc3ccc(F)cc3)n3c1nc1ccccc13)CCCC2`: the EC50 was greater than 200 µM and the IC50 came out at 81.3 µM. As for `CCOC(=O)C[P+](c1cccc(OC)c1)(c1cccc(OC)c1)c1cccc(OC)c1`, the EC50 is greater than 200 µM and the half-inhibitory concentration (IC50) worked out at 46.8 µM. `Cc1oc(-c2cccc(F)c2)nc1C(N)=O` showed an EC50 greater than 200 µM and an IC50 greater than 200 µM. Turning to `O=C(O)CC1NC(/C(=C/c2ccccc2O)NC(=O)c2ccccc2)OC1=O` (stereo not given), the outcome was inactive.

`N=C(N)SCCCON`: the EC50 is greater than 200 µM and the IC50 was greater than 200 µM. In the case of `COc1ccc(OC)c(C(O)C(C)NC(C)(C)C)c1` (stereo not given), the EC50 is greater than 200 µM and the IC50 was greater than 200 µM. Consider `Cc1ccc(NC(=S)Nc2ccccc2C)nc1`, for which the EC50 was greater than 200 µM and the 50% inhibitory concentration (IC50) stood at 0.776 µM. In the case of `COc1cccc(/C=c2\[nH]c(=O)/c(=C/c3cccc(OC)c3OC)[nH]c2=O)c1OC`, the EC50 is greater than 9.12 µM and the IC50 was greater than 9.12 µM. On to `O=S1(=O)CCCCS1`, for which the EC50 was greater than 200 µM and the IC50 was 5.37 µM. As to `CC(C)=CCN1CC(C)C(=O)Nc2cc(Cl)ccc21` (stereo not given), the EC50 was greater than 132 µM and the half-maximal inhibitory concentration (IC50) was found to be 28.2 µM. With `CCOC(=O)C1=C(OC(OCC)C(CC)[Se]c2ccccc2)CCC1` (stereo not given), the EC50 is greater than 45.7 µM and the IC50 is greater than 45.7 µM. Turning to `CC1(c2cccc(N)c2)C2C(=O)NC(=O)C1C(=O)NC2=O` (stereo not given), the EC50 was greater than 331 µM and the 50% inhibitory concentration (IC50) worked out at 56.2 µM. In the case of `COc1cccc(N)c1N`, the EC50 is greater than 1170 µM and the half-inhibitory concentration (IC50) came out at 18.2 µM. For the compound `O=c1oc2ccccc2cc1P(=O)(O)O`, the EC50 was greater than 200 µM and the half-inhibitory concentration (IC50) stood at 8.91 µM. With `CCCc1cc(=O)oc2c3c(cc(OC(C)C)c12)O[C@H](C)[C@H](C)[C@@H]3O`, the EC50 was greater than 200 µM and the IC50 is 49 µM.

With `COc1cc(C2C=C(c3ccccc3)Oc3cc4c(cc32)OCO4)cc(OC)c1OC` (stereo not given), the EC50 is greater than 2 µM and the IC50 worked out at 0.631 µM. Consider `S=C(NCCSSCCNC(=S)Nc1ccccc1)Nc1ccccc1`, for which the EC50 was greater than 200 µM and the concentration for half-maximal inhibition (IC50) was determined as 35.5 µM. The like results for `COc1cnc([C@H]2CCC3[C@@H]4CC=C5C[C@@H](OC(C)=O)CC[C@]5(C)C4CC[C@@]32C)s1` (stereo not given in full) were, in that order, greater than 21.9 µM and greater than 21.9 µM. In the case of `O=C1c2ccccc2C(=O)[C@@]23O[C@@]12C1(Oc2cccc4cccc(c24)O1)[C@@H]1O[C@@H]1[C@@H]3O`, the EC50 is greater than 20 µM and the IC50 amounted to 1.15 µM. For `C[C@H](COCP(=O)(O)O)n1cnc2c(N)ncnc21`, the EC50 was greater than 200 µM and the IC50 is greater than 200 µM. Take `C=CCOC1=C(OC(C)=O)C(=O)OC1C1COC(C)(C)O1` (stereo not given): the EC50 was greater than 200 µM and the IC50 is 26.3 µM. On to `O=C(O)c1ccsc1C(=O)c1ccccc1`, for which the EC50 was greater than 200 µM and the 50% inhibitory concentration (IC50) was greater than 200 µM. Consider `C/C(=N/O)C1CC=C(S(=O)(=O)c2ccccc2)C1` (stereo not given), for which the outcome was inactive.

On to `S=c1nc(Cc2ccc(Cl)cc2)[nH][nH]1`, for which the EC50 was greater than 200 µM and the 50% inhibitory concentration (IC50) was found to be 56.2 µM. With `CCN1OC(C)(C)C2CCC(C)CC21` (stereo not given), the EC50 is greater than 1260 µM and the 50% inhibitory concentration (IC50) is greater than 1260 µM. As to `NC(=O)c1[nH]cnc1/N=N/SCC(N)C(=O)O` (stereo not given), the EC50 is greater than 200 µM and the half-inhibitory concentration (IC50) is 0.794 µM. The like results for `CCOC(=O)C1=NC(c2ccccc2)(c2ccccc2)OC1=C(Cl)Cl` were, in that order, greater than 1 µM and greater than 1 µM. Consider `COC(=O)[C@H](Cc1ccccc1)NC(=O)N1CCN(C(=O)N[C@@H](Cc2ccccc2)C(=O)OC)CCN(C(=O)N[C@@H](Cc2ccccc2)C(=O)OC)CC1`, for which the EC50 is greater than 200 µM and the IC50 was greater than 200 µM. Consider `CCCCN1C(CO)C(O)C(O)C(O)C1CO` (stereo not given), for which the EC50 was greater than 200 µM and the IC50 is greater than 200 µM.

As to `[N-]=[N+]=CC(=O)OCC1SCCCS1`, the EC50 is greater than 200 µM and the IC50 was greater than 200 µM. Turning to `C[C@H](N)C(O)C/C=C\CC(O)/C=C/C=C\C/C=C\C/C=C\C/C=C\CCCCCCC(O)[C@H](C)N` (stereo not given in full), the result was inactive. For `CCOC(=O)Nc1cc2c(c(N)n1)N=C(c1ccc(OC)cc1)CN2`, the EC50 was greater than 11 µM and the concentration for half-maximal inhibition (IC50) turned out to be 0.224 µM. The like results for `c1ccc(SC23C4C5C6C4C2C6C53)nc1` (stereo not given) were, in that order, greater than 151 µM and 77.6 µM. For `COC(=O)[C@H](C)N(C)C(=O)C(CC(N)=O)N(C)C(=O)[C@H](Cc1ccccc1)N(C)C(=O)[C@@H]1CCCN1C(=O)[C@H](C(C)C)N(C)C(=O)C(C(C)C)N(C)C(=O)[C@@H](NC(=O)OC(C)(C)C)C(C)C` (stereo not given in full) (Boc-V[ξNMeV][NMeV]P[NMeF][ξNMeN][NMeA]-OMe), the EC50 is greater than 53.7 µM and the IC50 was found to be 50.1 µM. `C=CC1(C)CCC(C(C)C(=O)C(C=C(C)C)OC(C)=O)C12C(=O)Oc1ccccc1C2=O` (stereo not given): the EC50 was greater than 30.9 µM and the half-inhibitory concentration (IC50) amounted to 29.5 µM. `Cc1csc([C@H]2CCC3[C@@H]4CC=C5C[C@@H](OC(=O)CCC(=O)O)CC[C@]5(C)C4CC[C@@]32C)n1` (stereo not given in full): the EC50 was greater than 52.5 µM and the 50% inhibitory concentration (IC50) was found to be 33.1 µM. `COc1cc(/C=C2/SC(c3ccccc3)N(c3ccccc3Cl)C2=O)cc(OC)c1OC` (stereo not given): the EC50 is greater than 200 µM and the IC50 worked out at 43.7 µM.

As for `c1ccc(C2CN=C(c3ccccn3)C(c3ccccn3)=N2)cc1` (stereo not given), the EC50 is greater than 60.3 µM and the IC50 is greater than 60.3 µM. Take `Clc1ccc(CSc2ccc3nncc(SCc4ccc(Cl)cc4)c3c2)cc1`: the EC50 was greater than 60.3 µM and the IC50 is greater than 60.3 µM. In the case of `CC1=C(/C=C/C(C)=C/C=C/C(C)=C/C=O)C(C)(C)CCC1`, the outcome was inactive. On to `CCOC(=O)C(NC(=O)CC)(Nc1ccccc1OC)C(F)(F)F` (stereo not given), for which the EC50 was greater than 200 µM and the half-maximal inhibitory concentration (IC50) was greater than 200 µM. As to `COc1cc(-c2cc(=O)c3c(O)c(OC)c(OC)c(OC)c3o2)ccc1O`, the EC50 is greater than 132 µM and the concentration for half-maximal inhibition (IC50) turned out to be 9.33 µM. As to `CC(=O)C1C(=O)NC(=O)C1=O` (stereo not given), the EC50 was greater than 1620 µM and the half-maximal inhibitory concentration (IC50) was greater than 1620 µM. For the compound `Cc1cccc(Nc2nc3ccccc3nc2NS(=O)(=O)c2ccc(N)cc2)c1`, the EC50 is greater than 200 µM and the half-maximal inhibitory concentration (IC50) was found to be 112 µM. With `Cn1nccc2c(=O)n(C)c(=O)nc1-2`, the EC50 is greater than 200 µM and the IC50 was greater than 200 µM. Take `O=c1[nH]c(=O)n(COCc2ccccc2)c2ccccc12`: the EC50 was greater than 200 µM and the concentration for half-maximal inhibition (IC50) was 174 µM. The like results for `COc1ccc(CC(=O)c2ccc(O)cc2O)cc1` were, in that order, greater than 200 µM and 81.3 µM. On to `O=c1cc(NNc2cccc(F)c2)[nH]c(=S)[nH]1`, for which the EC50 was greater than 200 µM and the half-maximal inhibitory concentration (IC50) amounted to 87.1 µM. `CC(=N)C(C#N)C(=S)S` (stereo not given): the EC50 was greater than 537 µM and the concentration for half-maximal inhibition (IC50) is 27.5 µM. Turning to `c1ccc([P+](Cc2cccc3c2Cc2ccccc2-3)(c2ccccc2)c2ccccc2)cc1`, the EC50 is greater than 200 µM and the IC50 came to 0.891 µM.

With `O=C(Nc1ccccc1-c1nc2ccccc2[nH]c1=O)c1ccccc1`, the EC50 was greater than 52.5 µM and the IC50 stood at 29.5 µM. The like results for `c1ccc(C2SCc3nc4cc5ccccc5cc4n32)cc1` (stereo not given) were, in that order, greater than 200 µM and greater than 200 µM.

As to `Nc1c(S(=O)(=O)O)cc2cc(S(=O)(=O)O)ccc2c1N=Nc1ccc(-c2ccc(N=Nc3c(N)c(S(=O)(=O)O)cc4cc(S(=O)(=O)O)ccc34)c(S(=O)(=O)O)c2)cc1`, the result was active. As to `O=C(N1CC2(CN(C(=O)C(F)(F)F)CC3(C1)OCCO3)OCCO2)C(F)(F)F`, the EC50 is greater than 200 µM and the half-maximal inhibitory concentration (IC50) was greater than 200 µM. On to `Cc1c(O)c2ccc(Cl)cc2n(C)c1=O`, for which the EC50 was greater than 200 µM and the IC50 was greater than 200 µM.

Regarding `CC1(C(=O)Nc2ccccc2)CC2(C)CC(C)(C1)C(O)NC2=O` (stereo not given), the outcome was inactive. Take `CC1(C)CCC[C@@]2(C)C1CC[C@@]1(CO1)[C@@H]2/C=C\C(C=O)CC=O` (stereo not given in full): the result was inactive. Consider `CC1(O)Cc2c(O)c3c(c(O)c2CC1O)C(=O)C=CC3=O` (stereo not given), for which the EC50 is greater than 12.9 µM and the 50% inhibitory concentration (IC50) is 1.32 µM.

`CN1C/C(=C/c2ccc(N(C)C)cc2)C(=O)/C(=C/c2ccc(N(C)C)cc2)C1`: the EC50 was greater than 200 µM and the concentration for half-maximal inhibition (IC50) is greater than 200 µM.

Take `Clc1ccc(-n2cnn3c(-c4ccccc4)ncc23)cc1`: the EC50 is greater than 100 µM and the IC50 was greater than 100 µM. With `Clc1ccc(SC(/C=C/NNC2=NC(c3ccccc3)C(c3ccccc3)=NN2)c2ccccc2)cc1` (stereo not given), the EC50 was greater than 7.24 µM and the IC50 stood at 5.62 µM.

Regarding `COC(=O)NC(=O)c1cn(C2CCCCC2)c(=O)[nH]c1=O`, the EC50 was greater than 123 µM and the IC50 was greater than 123 µM.

`Clc1ccc2nc(CCSCCc3nc4ccc(Cl)cc4[nH]3)[nH]c2c1`: the outcome was inactive. In the case of `CCCCCCCCCCCCC/C=C/C(O)C(CO)NC(=O)CCCCC` (stereo not given), the result was inactive. `CC1=CC(=O)c2ccc3c4ccccc4n(C)c3c2C1=O`: the EC50 is greater than 26.3 µM and the IC50 was greater than 26.3 µM. Take `CC[C@@H]1NC(=O)[C@H]([C@H](O)C(C)C)N(C)C(=O)[C@H](C(C)C)N(C)C(=O)[C@H](CC(C)C)N(C)C(=O)[C@H](CC(C)C)N(C)C(=O)[C@@H](C)NC(=O)[C@H](CCCCNC(=O)COc2ccc(Sc3c(O)cc(-c4ccccc4)oc3=O)c(C(C)(C)C)c2)NC(=O)[C@H](CC(C)C)N(C)C(=O)[C@H](C(C)C)NC(=O)[C@H](CC(C)C)N(C)C(=O)[C@@H](CO)N(C)C1=O` (cyclo([Abu][dNMeS][NMeL]V[NMeL]K(X4)[dA][NMeL][NMeL][NMeV][NMeLeu(3R-OH)])): the EC50 is greater than 67.6 µM and the IC50 came out at 4.57 µM. `CN(C)CC1CCCC(CN(C)C)C1OC(=O)c1ccccc1` (stereo not given): the outcome was inactive.
